Experimental data taken from patent EP0411593A2, “Use of bis (aminothiocarbonyl) disulfide for treating ulcer” (KURARAY CO., LTD., priority 1989, dated 1991).

Experiments:
[1] = system: HCl-ethanol induced ulcer; experiment: Antiulcer activity (HCl-ethanol ulcer), oral administration; type: in vivo; conditions: rats, inhibition of ulcer coefficient vs control; for Inhibitation Rate (%): dose 5 mg/kg orally one hour before HCl-ethanol
Procedure: Antiulcer activity (HCl-ethanol ulcer) 1.5 ml of 60% ethanol aqueous solution containing 150 mM of hydrochloric acid was orally administered to rats. One hour thereafter the rats were sacrificed and the length (mm) of HCl-ethanol induced ulcer generated at the mucosa of the stomach was measured. The sum of the ulcer length per animal is defined as ulcer coefficient. Specimens each was orally administered one hour before the HCl-ethanol administration. Inhibition rate was calculated by dividing the difference in ulcer coefficient between the control group and the specimen-administered group by the ulcer coefficient of the control group.

[2] = Acute toxicity through oral administration; conditions: mouse, in vivo, male ICR-strain mice (5 weeks old), read-out: LD₅₀
Procedure: Acute toxicity tests through oral administration were carried out using male ICR-strain mice (5 weeks old).
The LD₅₀ values of the compound (1) of the present invention was 2000 mg/kg or more and thus higher saftety as compared with the effective amount was ascertained.

| Compound | Inhibitation Rate (%) [1] [%] | also measured |
| --- | --- | --- |
| S=C(SSC(=S)N1CCOCC1)N1CCOCC1 [Compound Number (1)] | 93.7 | LD50 [2]: ≥ 2000 mg/kg |
| CC1CN(C(=S)SSC(=S)N2CC(C)OC(C)C2)CC(C)O1 (centres unmarked) [Compound Number (2)] | 81.7 |  |
| OCCN1CCN(C(=S)SSC(=S)N2CCN(CCO)CC2)CC1 [Compound Number (3)] | 24.3 |  |
| S=C(SSC(=S)N1CCCCC1)N1CCCCC1 [Compound Number (4)] | 64.1 |  |
| OCCC1CCN(C(=S)SSC(=S)N2CCC(CCO)CC2)CC1 [Compound Number (5), bis[[4-(2-hydroxyethyl)piperidiono]thiocarbonyl]disulfide] | 37.4 |  |
| CC(=O)c1ccc2c(c1)C(=O)C1(CC1)O2 [Spizofurone, reference compound] |  | Inhibiton Rate (%) ([1]; dose 100 mg/kg orally one hour before HCl-ethanol): 86.6% |
| Teprenone [reference compound] |  | Inhibiton Rate (%) ([1]; dose 25 mg/kg orally one hour before HCl-ethanol): 48.9% |
